Measurements reported in PubChem BioAssay (NCI).
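Each compound was tested at five concentrations against cells in 96-well plates for 48 hours. At the GI50, growth is halved. The concentration for full growth arrest is given as TGI.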

Assays:
Test in all cases: growth of human tumour cells (NCI), 48 h
[1] = system: 786-0 renal
[2] = system: A498 renal
[3] = system: A549 NSCLC
[4] = system: ACHN renal
[5] = system: BT-549 breast
[6] = system: CAKI-1 renal
[7] = system: CCRF-CEM leukemia
[8] = system: COLO 205 colon
[9] = system: DU-145 prostate
[10] = system: EKVX NSCLC
[11] = system: HCC-2998 colon
[12] = system: HCT-116 colon
[13] = system: HCT-15 colon
[14] = system: HL-60(TB) leukemia
[15] = system: HOP-62 NSCLC
[16] = system: HOP-92 NSCLC
[17] = system: HS 578T breast
[18] = system: HT29 colon
[19] = system: IGROV1 ovarian
[20] = system: K-562 leukemia
[21] = system: KM12 colon
[22] = system: LOX IMVI melanoma
[23] = system: M14 melanoma
[24] = system: MALME-3M melanoma
[25] = system: MCF7 breast
[26] = system: MDA-MB-231 breast
[27] = system: MDA-MB-435
[28] = system: MOLT-4 leukemia
[29] = system: NCI-H226 lung
[30] = system: NCI-H23 lung
[31] = system: NCI-H460 lung
[32] = system: NCI-H522 lung
[33] = system: NCI/ADR-RES ovarian
[34] = system: OVCAR-4 ovarian
[35] = system: OVCAR-5 ovarian
[36] = system: OVCAR-8 ovarian
[37] = system: PC-3 prostate
[38] = system: RPMI-8226 leukemia
[39] = system: RXF 393 renal
[40] = system: SF-268 CNS
[41] = system: SF-295 CNS
[42] = system: SF-539 CNS
[43] = system: SK-MEL-2 melanoma
[44] = system: SK-MEL-28 melanoma
[45] = system: SK-MEL-5 melanoma
[46] = system: SK-OV-3 ovarian
[47] = system: SN12C renal
[48] = system: SNB-19 CNS
[49] = system: SNB-75 CNS
[50] = system: SR leukemia
[51] = system: SW-620 colon
[52] = system: T-47D breast
[53] = system: TK-10 renal
[54] = system: U251 CNS
[55] = system: UACC-257 melanoma
[56] = system: UACC-62 melanoma
[57] = system: UO-31 renal

## CNC(=O)c1cc(N2CCc3cc(NC(=O)Nc4ccc(N5CCN(C)CC5)c(C(F)(F)F)c4)ccc32)ccn1
[1]
  GI50: 2.86 µM
  TGI: 6.15 µM
[2]
  GI50: 7.9 µM
  TGI: > 25 µM
[3]
  GI50: 3.94 µM
  TGI: 7.99 µM
[4]
  GI50: 3.92 µM
  TGI: 7.31 µM
[5]
  GI50: 4.59 µM
  TGI: 14.4 µM
[6]
  GI50: 4.43 µM
  TGI: 9.07 µM
[7]
  GI50: 1.17 µM
  TGI: 21.6 µM
[8]
  GI50: 4.54 µM
  TGI: 8.71 µM
[9]
  GI50: 4.22 µM
  TGI: 8.12 µM
[10]
  GI50: 3.95 µM
  TGI: 7.73 µM
[11]
  GI50: 4.13 µM
  TGI: 7.83 µM
[12]
  GI50: 2.22 µM
  TGI: 5.35 µM
[13]
  GI50: 0.879 µM
  TGI: 3.59 µM
[14]
  GI50: 4.28 µM
  TGI: 11.9 µM
[15]
  GI50: 4.02 µM
  TGI: 8.34 µM
[16]
  GI50: 21.4 µM
  TGI: > 25 µM
[17]
  GI50: 3.49 µM
  TGI: 9.66 µM
[18]
  GI50: 1.31 µM
  TGI: 4.91 µM
[19]
  GI50: 4.6 µM
  TGI: 9.53 µM
[20]
  GI50: 0.69 µM
  TGI: 2.19 µM
[21]
  GI50: 0.862 µM
  TGI: 4.24 µM
[22]
  GI50: 3.44 µM
  TGI: 7.14 µM
[23]
  GI50: 3.34 µM
  TGI: 6.67 µM
[24]
  GI50: 3.72 µM
  TGI: 7.52 µM
[25]
  GI50: 2.96 µM
  TGI: 7.39 µM
[26]
  GI50: 3.48 µM
  TGI: 7.83 µM
[27]
  GI50: 3.99 µM
  TGI: 7.6 µM
[28]
  GI50: 1.18 µM
  TGI: 22 µM
[29]
  GI50: > 25 µM
  TGI: > 25 µM
[30]
  GI50: 3.73 µM
  TGI: 8.06 µM
[31]
  GI50: 3.78 µM
  TGI: 7.68 µM
[32]
  GI50: 4.87 µM
  TGI: 9.54 µM
[33]
  GI50: 5.27 µM
  TGI: 12 µM
[34]
  GI50: 3.96 µM
  TGI: 8.69 µM
[35]
  GI50: 3.76 µM
  TGI: 8.4 µM
[36]
  GI50: 4.48 µM
  TGI: 8.67 µM
[37]
  GI50: 4.36 µM
  TGI: 15.3 µM
[38]
  GI50: 0.742 µM
  TGI: 2.69 µM
[39]
  GI50: 0.815 µM
  TGI: 3.15 µM
[40]
  GI50: 4.08 µM
  TGI: 9.86 µM
[41]
  GI50: 0.541 µM
  TGI: 1.33 µM
[42]
  GI50: 1.03 µM
  TGI: 4.15 µM
[43]
  GI50: 4.56 µM
  TGI: 8.66 µM
[44]
  GI50: 3.7 µM
  TGI: 7.19 µM
[45]
  GI50: 4.32 µM
  TGI: 7.89 µM
[46]
  GI50: > 25 µM
  TGI: > 25 µM
[47]
  GI50: 4.05 µM
  TGI: 8.1 µM
[48]
  GI50: 3.6 µM
  TGI: 8.12 µM
[49]
  GI50: 2.55 µM
  TGI: 5.75 µM
[50]
  GI50: 0.79 µM
  TGI: 4.43 µM
[51]
  GI50: 0.881 µM
  TGI: 2.87 µM
[52]
  GI50: 4.14 µM
  TGI: 9.32 µM
[53]
  GI50: 5.42 µM
  TGI: 11.1 µM
[54]
  GI50: 2.45 µM
  TGI: 5.75 µM
[55]
  GI50: 4.31 µM
  TGI: 8.05 µM
[56]
  GI50: 4.48 µM
  TGI: 9.4 µM
[57]
  GI50: 4.22 µM
  TGI: 9.43 µM
